Values quoted from earlier work in article PMC10698917, “Antioxidant and antidiabetic flavonoids from the leaves of Dypsis pembana (H.E.Moore) Beentje & J.Dransf., Arecaceae: in vitro and molecular docking studies” (BMC Complementary Medicine and Therapies, 2023).

Test system: HepG-2 cell line
Set-up: method as in PMID 37391756
Conditions: cited from earlier work

SMILES	Cytotoxic activity
O=c1cc(-c2ccc(O)cc2)oc2c([C@@H]3O[C@H](CO)[C@@H](O)[C@H](O)[C@H]3O)c(O)c([C@@H]3O[C@H](CO)[C@@H](O)[C@H](O)[C@H]3O)c(O)c12 [Compound 7, vicenin-II]	promising cytotoxic activities
O=c1cc(-c2ccc(O)cc2)oc2cc(O)c([C@@H]3O[C@H](CO)[C@@H](O)[C@H](O)[C@H]3O)c(O)c12 [Compound 13, isovitexin]	promising cytotoxic activities
